These are literature values, as cited in patent publication US8071133B2, “Oral dosage forms of water insoluble drugs and methods of making the same” (Stiefel Laboratories, Inc., priority 2001, dated 2011).

For `CC(C)(C)NC(=O)[C@@H]1C[C@@H]2CCCC[C@@H]2CN1C[C@@H](O)[C@H](Cc1ccccc1)NC(=O)[C@H](CC(N)=O)NC(=O)c1ccc2ccccc2n1` [Saquinavir], the solubility in water entry is “approximately 10 microgram per mL”.
